Measured values published in patent publication US20150031892A1, “SPHINGOLIPID METABOLITE MIMETICS” (Zhejiang University, priority 2012, published 2015).
Like-named read-outs stand apart in the source and are kept apart here.

Experiments:
Assay type in all cases: cell-based
MES-SA cells = test: Apoptosis assay, Hoechst 33342 fluorescence staining; details: doses of their IC50 for 8 h
Description: The cells were then washed with PBS and stained with Hoechst 33342 (from sigma chemical) for 20 min in the dark. Morphologic changes were analyzed under a fluorescence microscope. The experiment was repeated three times.

[1] = tested on: multiple types of cancer cells; test: MTT cytotoxicity, statements over several cancer cell lines; details: for direct anti-cancer cell activity: summary statement
Description: (§1) Cell survival after exposure to the sphingolipid metabolite mimetics was examined by MTT cytotoxicity assay. HepG2, A431, HeLa, MCF-7 and SA cells (7000 cells/well) were seeded in each well of a 96-well plate for 24 h. New medium was added to give final concentrations of 0 to 200 μM of the sphingolipid metabolite mimetics. Then, 50 μl of 1 mg/ml 3-(4,5-dimethylthiazol-2-yl)-2,5-diphenyltetrazolium bromide (MTT, Sigma-Aldrich Chemical) was added to each well for 4 h incubation at 37° C. The purple formazan formed was then solubilized by DMSO and absorbance at 570 nm was read by a microplate reader (Molecular Devices, Sunnyvale, Calif.).

SW480 = test: MTT cytotoxicity assay, SW480 (colon cancer); details: Homo sapiens
SiHa = test: MTT cytotoxicity assay, SiHa (ovarian cancer as headed); details: Homo sapiens, Cervical Cancer SiHa
HepG2 = test: MTT cytotoxicity assay, HepG2 (liver cancer); details: Homo sapiens
Outline: (§2)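 Cells seeded at 7000/well for 24 h, then exposed to sphingolipid metabolite mimetics at final 0 to 200 μM. MTT added for 4 h at 37° C; formazan dissolved in DMSO and absorbance read at 570 nm.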

SA = test: MTT cytotoxicity assay, SA (pancreatic cancer as headed)
Outline: as §2

A431 = test: MTT cytotoxicity assay, A431 (squamous carcinoma); details: Homo sapiens, A-431
Outline: as §2

MCF-7 = test: MTT cytotoxicity assay, MCF-7 (breast cancer); details: Homo sapiens, MCF7; Breast Cancer MCF-7, MTT
Description: as §1

SW620 = test: MTT cytotoxicity assay, SW620 (colon cancer); details: Homo sapiens, SW-620
SW620 cells = test: Drug sensitivity MTT assay with TRAIL, SW620; design: scale not given here; details: for NZJU alone mean value (sensitivity, growth inhibition): drug alone (19-100 μM; TRAIL 100 ng/ml)
Description: (§3) Cell survival after exposure to the anti-tumor agents was examined by MTT cytotoxicity assay. Cells were seeded in each well of a 96-well plate for 24 h. After incubation with various concentrations of compounds, TRAIL, or both for 48 h, the medium was discarded. Then, 50 μl of 1 mg/ml 3-(4,5-dimethylthiazol-2-yl)-2,5-diphenyltetrazolium bromide (MTT, Sigma-Aldrich Chemical) was added to each well for 4 h incubation at 37° C. The purple formazan formed was then solubilized by DMSO and absorbance at 570 nm was read by a microplate reader (Molecular Devices, Sunnyvale, Calif.).

HELA cells = test: Drug sensitivity MTT assay with TRAIL, HELA; design: scale not given here
Description: as §3

MCF-7 cells = test: Drug sensitivity MTT assay with TRAIL, MCF-7; design: scale not given here
Description: as §3

[2] = tested on: cancer cells (TRAIL resistance); test: Sensitization of cancer cells to TRAIL-induced apoptosis, general statements; details: summary statement
Description: as §3

[3] = all five cell lines tested, read-out: IC50 values
[4] = enhancement due to co-administration with TRAIL
[5] = mimetic at the dose of its row combined with TRAIL 100 ng/ml, 48 h
[6] = drug alone (19-100 μM; TRAIL 100 ng/ml), 48 h

| SMILES | apoptotic cell death, fluorescent micrographs (FIG. 30) (MES-SA cells) | direct anti-cancer cell activity [1] | IC50 (SW480) [µM] | IC50 (SiHa) [µM] | IC50 (HepG2) [µM] | IC50 (SA) [µM] | IC50 (A431) [µM] | IC50 [1, 3] [µM] | IC50 (MCF-7) [µM] | IC50 (SW620) [µM] | also measured |
| --- | --- | --- | --- | --- | --- | --- | --- | --- | --- | --- | --- |
| CCCCCCCCCCCCCCNC(=O)[C@@H](NC(=O)c1cc2ccccc2n1C)[C@@H](C)O [NZJU51, N-((2S,3R)-3-hydroxy-1-oxo-1-(tetradecylamino)butan-2-yl)-(N-methyl)indole-2-carboxamide] | apoptotic cell death | direct anti-cancer cell activity | 34.2 ± 1.36 | 26.5 ± 2.33 | 34.5 ± 2.34 | 25.7 ± 0.42 | 13.7 ± 1.73 |  |  |  |  |
| CCCCCCCCCCCCCCNC(=O)[C@@H](NC(=O)Cc1c[nH]c2ccccc12)[C@@H](C)O [NZJU28, N-((2S,3R)-3-hydroxy-1-oxo-1-(tetradecylamino)butan-2-yl)-indole-3-acetic acid amide] | apoptotic cell death | direct anti-cancer cell activity | 20 | 4.8 ± 0.29 | 21.1 ± 1.92 | 11.5 ± 0.97 | 15.5 ± 2.95 | < 30 | 6.81 ± 1.73 | 22 ± 0.71 |  |
| CCCCCCCCCCCCCCNC(=O)[C@@H](NC(=O)c1cc2ccccc2o1)[C@@H](C)O [NZJU37, N-((2S,3R)-3-hydroxy-1-oxo-1-(tetradecylamino)butan-2-yl)-benzofuran-2-carboxamide] | apoptotic cell death | direct anti-cancer cell activity | 22.8 | 14.2 ± 1.84 | 23.4 ± 1.19 | 9.61 ± 0.56 | 20.09 ± 0.16 | < 30 | 23.4 ± 1.19 | 26.7 ± 2.48 |  |
| CCCCCCCCCCCCNC(=O)[C@@H](NC(=O)c1nccc2ccccc12)[C@@H](C)O [NZJU30, N-((2S,3R)-3-hydroxy-1-oxo-1-(dodecylamino)butan-2-yl)-isoquinoline-1-carboxamide] |  | direct anti-cancer cell activity | 58.8 | 56.6 ± 4.91 | 65.7 ± 2.63 | 51.93 ± 0.42 | 62.8 ± 7.56 |  | 50.5 ± 5.65 | 65.8 ± 4.14 | NZJU alone mean value (sensitivity, growth inhibition) (SW620 cells; 48 h): −0.038; NZJU alone mean value (sensitivity, growth inhibition) (SW620 cells; 48 h, listed as NZJU2f): very little sensitivity; Enhanced mean value (SW620 cells; [4]): 0.375; combine mean value (sensitivity, growth inhibition) (SW620 cells; [5]): 0.493; NZJU alone mean value (sensitivity, growth inhibition) (HELA cells; [6]): 0.057; Enhanced mean value (HELA cells; [4]): 0.075; combine mean value (sensitivity, growth inhibition) (HELA cells; [5]): 0.195; NZJU alone mean value (sensitivity, growth inhibition) (MCF-7 cells; [6]): 0.002; Enhanced mean value (MCF-7 cells; [4]): 0.157; combine mean value (sensitivity, growth inhibition) (MCF-7 cells; [5]): 0.274; TRAIL sensitization activity [2]: TRAIL sensitization activity |
| CCCCCCCCCCCCNC(=O)[C@@H](NC(=O)c1cc2ccccc2o1)[C@@H](C)O [NZJU36, N-((2S,3R)-3-hydroxy-1-oxo-1-(dodecylamino)butan-2-yl)-benzofuran-2-carboxamide] | apoptotic cell death | direct anti-cancer cell activity | 21.4 | 12.8 ± 2.07 | 22.9 ± 1.18 | 10.5 ± 1.31 | 20 ± 0.9 | < 30 | 20.9 ± 0.54 | 21.3 ± 1.28 |  |
| CCCCCCCCCCCCNC(=O)[C@@H](NC(=O)Cc1c[nH]c2ccccc12)[C@@H](C)O [NZJU27, N-((2S,3R)-3-hydroxy-1-oxo-1-(dodecylamino)butan-2-yl)-indole-3-acetic acid amide] | apoptotic cell death | direct anti-cancer cell activity | 20 | 13.6 ± 1.02 | 22.6 ± 2.89 | 20 ± 0.74 | 23.4 ± 3.48 | < 30 | 15.5 ± 2.3 | 22 ± 2.86 |  |
| CCCCCCCCCCCCCCNC(=O)[C@@H](NC(=O)c1cc2ccccc2[nH]1)[C@@H](C)O [NZJU48, N-((2S,3R)-3-hydroxy-1-oxo-1-(tetradecylamino)butan-2-yl)-indole-2-carboxamide] | apoptotic cell death | direct anti-cancer cell activity | 11.8 ± 1.46 | 14.2 ± 1.8 | 10.5 ± 0.35 | 12.1 ± 2.77 | 12.2 ± 1.9 |  |  |  | IC50 ([1]; all of the cell lines tested, read-out: IC50 values): < 20 µM; IC50 ([1]; multiple types of cancer cells, read-out: IC50): < 20 µM |
